From patent US9481899B2, “Methods and compositions for producing hydrocarbons” (priority 2008, dated 2016)

Target: T1, Npun02004178 protein (Nostoc punctiforme, UniProt B2J1M1)
T1 construct: made in house; host or cells: E. coli BL21 (DE3)
T1 sequence (B2J1M1 1-232): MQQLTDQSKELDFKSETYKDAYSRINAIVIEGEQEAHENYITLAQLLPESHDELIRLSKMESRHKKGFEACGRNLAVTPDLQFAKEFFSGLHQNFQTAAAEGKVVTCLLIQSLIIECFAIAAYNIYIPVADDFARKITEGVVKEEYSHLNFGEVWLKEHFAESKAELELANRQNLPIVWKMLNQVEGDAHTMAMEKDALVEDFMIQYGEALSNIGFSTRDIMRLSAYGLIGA
Experiment: In-vitro fatty aldehyde decarbonylase assay
Format: biochemical, Nostoc punctiforme PCC73102
Procedure: The genomic DNA encoding N. punctiforme PCC73102 Npun02004178 (SEQ ID NO:5) was cloned into the NdeI and XhoI sites of vector pET-15b under the control of the T7 promoter. The resulting Npun02004178 protein contained an N-terminal His-tag. An E. coli BL21 strain (DE3) (Invitrogen) was transformed with the plasmid by routine chemical transformation techniques. Protein expression was carried out by first inoculating a colony of the E. coli strain in 5 mL of LB media supplemented with 100 mg/L of carbenicillin and shaken overnight at 37° C. to produce a starter culture. This starter cultures was used to inoculate 0.5 L of LB media supplemented with 100 mg/L of carbenicillin. […] Protein concentration was determined using the Bradford assay (Biorad). […]
To test Npun02004178 protein for decarbonylation activity, the following enzyme assays were set-up. […] Samples were analyzed by GC/MS using the following parameters: run time: 13.13 min; column: HP-5-MS Part No. 19091S-433E (length of 30 meters; I.D.: 0.25 mm narrowbore; film: 0.25 ìM); inject: 1 ìl Agilent 6850 inlet; inlet: 300 C splitless; carrier gas: helium; flow: 1.3 mL/min; oven temp: 75° C. hold 5 min, 320 at 40° C./min, 320 hold 2 min; det: Agilent 5975B VL MSD; det. temp: 330° C.; scan: 50-550 M/Z. Heptadecane from Sigma was used as an authentic reference for determining compound retention time and fragmentation pattern. […]

In the case of `CCCCCCCCCCCCCCCCCC=O` [octadecanal], the “in-vitro conversion of octadecanal to heptadecane” value (30 μM Npun02004178, 200 μM octadecanal, spinach ferredoxin, spinach ferredoxin reductase, 1 mM NADPH, 37° C., 2 h) is reported as “conversion of octadecanal to heptadecane was observed” and the “in-vitro conversion of octadecanal to heptadecane” value (NADPH, cyanobacterial ferredoxin oxidoreductase and any of the three cyanobacterial ferredoxins) is reported as “conversion of octadecanal to heptadecane was observed”.
